# From US20230265151A1, “GIP/GLP1 CO-AGONIST COMPOUNDS” (priority 2020, published 2023)
# Like-named read-outs stand apart in the source and are kept apart here. *1 amine or outer side, *2 acyl side, *3 side chain or, on linkers, in order; H or OH if unused. Where a SMILES comes first, the peptide text is derived from it. Side-chain parts run from the residue outwards. [ ]: non-standard residue; d: D form. The star is where a group is joined. αMePhe(2-F) = C[C@](N)(Cc1ccccc1F)C(=O)O; γGlu = O=C(O)[C@H](CCC(=O)[*:2])N[*:1]; C14 diacid = O=C(O)CCCCCCCCCCCCC(=O)*; αMeY = C[C@](N)(Cc1ccc(O)cc1)C(=O)O; αMeF = C[C@](N)(Cc1ccccc1)C(=O)O; 4Pal = N[C@@H](Cc1ccncc1)C(=O)O; αMeL = CC(C)C[C@](C)(N)C(=O)O; Lauroyl = CCCCCCCCCCCC(=O)*; Orn = NCCC[C@H](N)C(=O)O; AEEA = NCCOCCOCC(=O)O; Aib = CC(C)(N)C(=O)O
# How the values were obtained:
# Format in all cases: cell-based
# hGIPR = molecular target: T1, hGIPR (Homo sapiens, UniProt P48546); experiment: Functional cAMP formation (HTRF) in HEK-293 clonal cells expressing hGIPR, 0.1% bovine casein, without or with 1.0% human serum albumin; settings: for EC50: cAMP, 0.1% bovine casein (no human serum albumin), geometric mean
# T1 construct: expressed in transfected cells
# T1 sequence (P48546 22-466): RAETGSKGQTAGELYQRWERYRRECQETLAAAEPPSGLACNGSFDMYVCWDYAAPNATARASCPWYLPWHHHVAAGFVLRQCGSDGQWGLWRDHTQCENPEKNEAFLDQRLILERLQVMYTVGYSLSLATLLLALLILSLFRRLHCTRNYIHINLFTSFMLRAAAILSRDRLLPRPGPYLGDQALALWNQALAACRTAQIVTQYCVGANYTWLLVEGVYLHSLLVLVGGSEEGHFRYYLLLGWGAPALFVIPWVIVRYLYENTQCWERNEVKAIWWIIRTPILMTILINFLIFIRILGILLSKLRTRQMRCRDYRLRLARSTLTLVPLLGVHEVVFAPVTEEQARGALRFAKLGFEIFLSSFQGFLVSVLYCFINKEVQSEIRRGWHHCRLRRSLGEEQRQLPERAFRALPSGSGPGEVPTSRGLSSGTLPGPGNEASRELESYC
# In short: (§1)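 Cells were stimulated with peptide for 30 min at 37° C, then intracellular cAMP was measured by competitive HTRF (665/620 nm ratio) and converted to nM using a cAMP standard curve. Relative EC50 and Emax came from four-parameter logistic fits of percent maximal response against peptide concentration.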
# hGCGR = molecular target: T2, hGCGR (Homo sapiens, UniProt P47871); experiment: Functional cAMP formation (HTRF) in HEK-293 clonal cells expressing hGCGR, 0.1% bovine casein, without or with 1.0% human serum albumin; settings: cAMP
# T2 construct: expressed in transfected cells
# T2 sequence (P47871 26-477): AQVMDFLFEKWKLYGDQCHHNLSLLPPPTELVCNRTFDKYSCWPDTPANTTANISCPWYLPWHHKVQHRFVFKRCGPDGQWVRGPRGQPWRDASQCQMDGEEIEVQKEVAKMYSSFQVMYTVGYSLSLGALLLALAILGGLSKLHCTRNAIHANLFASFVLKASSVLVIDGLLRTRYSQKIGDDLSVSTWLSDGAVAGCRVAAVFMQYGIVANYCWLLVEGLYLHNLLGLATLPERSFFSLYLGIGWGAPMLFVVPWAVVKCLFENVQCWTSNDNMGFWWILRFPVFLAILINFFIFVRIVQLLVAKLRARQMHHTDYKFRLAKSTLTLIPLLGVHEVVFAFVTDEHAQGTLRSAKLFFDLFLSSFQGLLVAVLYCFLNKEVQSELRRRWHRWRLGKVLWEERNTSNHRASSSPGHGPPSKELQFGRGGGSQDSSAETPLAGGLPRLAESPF
# In short: as §1
# hGLP-1R = hGLP-1R (Homo sapiens, UniProt P43220); experiment: Functional cAMP formation (HTRF) in HEK-293 clonal cells expressing hGLP-1R, 0.1% bovine casein, without or with 1.0% human serum albumin; parameters: expressed in transfected cells; settings: for EC50: cAMP, 0.1% bovine casein (no human serum albumin), geometric mean
# Chain of hGLP-1R (P43220 24-463): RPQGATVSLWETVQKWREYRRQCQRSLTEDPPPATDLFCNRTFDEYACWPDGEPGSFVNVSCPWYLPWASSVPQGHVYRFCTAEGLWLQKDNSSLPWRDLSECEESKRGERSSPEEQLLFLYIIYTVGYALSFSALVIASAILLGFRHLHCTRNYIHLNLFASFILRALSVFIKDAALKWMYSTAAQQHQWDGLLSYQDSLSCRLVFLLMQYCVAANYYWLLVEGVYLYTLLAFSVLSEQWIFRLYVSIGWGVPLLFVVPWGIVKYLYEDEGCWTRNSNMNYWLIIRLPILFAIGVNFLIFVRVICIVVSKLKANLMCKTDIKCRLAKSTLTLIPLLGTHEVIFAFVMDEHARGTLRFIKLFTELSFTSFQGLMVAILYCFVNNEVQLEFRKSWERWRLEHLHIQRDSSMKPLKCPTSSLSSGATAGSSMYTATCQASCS
# In short: as §1
# [1] = HEK293, read-out: hGIPR Emax, % ± SEM, cAMP, 37° C., 0.1% bovine casein and 1.0% human serum albumin, percent of maximal response to GIP(1-42)NH2
# [2] = hGIPR EC50, nM (SEM, n), 37° C.
# [3] = hGCGR EC50, nM (SEM, n), 37° C., 0.1% bovine casein (no human serum albumin), geometric mean
# [4] = hGCGR EC50, nM (SEM, n), 37° C., 0.1% bovine casein and 1.0% human serum albumin, geometric mean (SEM, n)
# [5] = hGLP-1R EC50, nM (SEM, n), 37° C.
smiles,measurement,setting,value
CC[C@H](C)[C@H](NC(=O)[C@H](CC(C)C)NC(=O)[C@H](Cc1ccc(O)cc1)NC(=O)[C@H](CCCCNC(=O)COCCOCCNC(=O)COCCOCCNC(=O)CC[C@H](NC(=O)CCCCCCCCCCCCC(=O)O)C(=O)O)NC(=O)[C@@H](NC(=O)[C@](C)(Cc1ccccc1)NC(=O)[C@H](CCC(=O)O)NC(=O)C(C)(C)NC(=O)[C@H](CCC(N)=O)NC(=O)[C@H](C)NC(=O)[C@H](CCCCNC(=O)COCCOCCNC(=O)COCCOCCNC(=O)CC[C@H](NC(=O)CCCCCCCCCCCCC(=O)O)C(=O)O)NC(=O)[C@H](CCCN)NC(=O)[C@H](CC(=O)O)NC(=O)[C@H](CC(C)C)NC(=O)[C@](C)(CC(C)C)NC(=O)[C@@H](NC(=O)[C@H](CO)NC(=O)[C@H](Cc1ccncc1)NC(=O)[C@H](CC(=O)O)NC(=O)[C@H](CO)NC(=O)[C@@H](NC(=O)[C@](C)(Cc1ccccc1F)NC(=O)[C@@H](NC(=O)CNC(=O)[C@H](CCC(=O)O)NC(=O)C(C)(C)NC(=O)[C@@H](N)Cc1ccc(O)cc1)[C@@H](C)O)[C@@H](C)O)[C@@H](C)CC)[C@@H](C)CC)C(=O)N[C@@H](CCC(=O)O)C(=O)NCC(=O)NCC(=O)N1CCC[C@H]1C(=O)N[C@@H](CO)C(=O)N[C@@H](CO)C(=O)NCC(=O)N[C@@H](C)C(=O)N1CCC[C@H]1C(=O)N1CCC[C@H]1C(=O)N1CCC[C@H]1C(=O)N[C@@H](CO)C(N)=O [Example 85] (H-Y[Aib]EGT[αMePhe(2-F)]TSD[4Pal]SI[αMeL]LD[Orn]K([AEEA-AEEA-γGlu-C14 diacid])AQ[Aib]E[αMeF]IK([AEEA-AEEA-γGlu-C14 diacid])YLIEGGPSSGAPPPS-NH2),Emax,"hGIPR; HEK293, percent of maximal response to GIP(1-42)NH2, 37° C., 0.1% bovine casein, arithmetic mean, read-out: hGIPR Emax, % ± SEM",91.7%
same,EC50,"hGIPR; incubated at 37° C., read-out: hGIPR EC50, nM (SEM, n)",0.0312 nM
same,EC50,"hGCGR; incubated at 37° C., 0.1% bovine casein (no human serum albumin), geometric mean, read-out: hGCGR EC50, nM (SEM, n)",> 9950 nM
same,Emax,"hGLP-1R; HEK293, percent of maximal response to GLP-1(7-36)NH2, 37° C., 0.1% bovine casein, arithmetic mean, read-out: hGLP-1R Emax, % ± SEM",95.3%
CC[C@H](C)[C@H](NC(=O)[C@H](CC(C)C)NC(=O)[C@](C)(Cc1ccc(O)cc1)NC(=O)[C@H](CCCCNC(=O)COCCOCCNC(=O)CCCCCCCNC(=O)CC[C@H](NC(=O)CCCCCCCCCOc1ccc(C(=O)O)cc1)C(=O)O)NC(=O)[C@@H](NC(=O)[C@H](Cc1ccccc1)NC(=O)[C@H](CCCN)NC(=O)C(C)(C)NC(=O)[C@H](CCC(N)=O)NC(=O)[C@H](C)NC(=O)[C@H](CCC(N)=O)NC(=O)[C@H](CCCN)NC(=O)[C@H](CC(=O)O)NC(=O)[C@H](CC(C)C)NC(=O)[C@](C)(CC(C)C)NC(=O)[C@@H](NC(=O)C(C)(C)NC(=O)[C@H](Cc1ccncc1)NC(=O)[C@H](CC(=O)O)NC(=O)[C@H](CO)NC(=O)[C@@H](NC(=O)[C@](C)(Cc1ccccc1F)NC(=O)[C@@H](NC(=O)CNC(=O)[C@H](CCC(=O)O)NC(=O)C(C)(C)NC(=O)[C@@H](N)Cc1ccc(O)cc1)[C@@H](C)O)[C@@H](C)O)[C@@H](C)CC)[C@@H](C)CC)C(=O)N[C@@H](CCCCNC(=O)COCCOCCNC(=O)CCCCCCCNC(=O)CC[C@H](NC(=O)CCCCCCCCCOc1ccc(C(=O)O)cc1)C(=O)O)C(=O)NCC(=O)NCC(=O)N1CCC[C@H]1C(=O)N[C@@H](CO)C(=O)N[C@@H](CO)C(=O)NCC(=O)N[C@@H](C)C(=O)N1CCC[C@H]1C(=O)N1CCC[C@H]1C(=O)N1CCC[C@H]1C(=O)N[C@@H](CO)C(N)=O [Example 454],Emax,hGIPR; [1],91.5%
same,EC50,hGIPR; [2],0.0202 nM
same,EC50,hGCGR; [3],> 9950 nM
same,EC50,hGCGR; [4],> 9950 nM
same,Emax,"hGLP-1R; HEK293, read-out: hGLP-1R Emax, % ± SEM, cAMP, 37° C., 0.1% bovine casein, percent of maximal response to GLP-1(7-36)NH2, arithmetic mean",114%
same,EC50,hGLP-1R; [5],0.266 nM
CC[C@H](C)[C@H](NC(=O)[C@H](CCCN)NC(=O)[C@H](CC(=O)O)NC(=O)[C@H](CC(C)C)NC(=O)[C@](C)(CC(C)C)NC(=O)[C@@H](NC(=O)C(C)(C)NC(=O)[C@@H](NC(=O)[C@H](CC(=O)O)NC(=O)[C@H](CO)NC(=O)[C@@H](NC(=O)[C@](C)(Cc1ccccc1F)NC(=O)[C@@H](NC(=O)CNC(=O)[C@H](CCC(=O)O)NC(=O)C(C)(C)NC(=O)[C@@H](N)Cc1ccc(O)cc1)[C@@H](C)O)[C@@H](C)O)C(C)C)[C@@H](C)CC)C(=O)N[C@@H](C)C(=O)N[C@@H](CCC(N)=O)C(=O)NC(C)(C)C(=O)N[C@@H](CCCCNC(=O)COCCOCCNC(=O)CC[C@H](NC(=O)CCCCCCCCCOc1ccc(C(=O)O)cc1)C(=O)O)C(=O)N[C@@H](Cc1ccccc1)C(=O)N[C@H](C(=O)N[C@H](CCC(=O)O)C(=O)N[C@@](C)(Cc1ccc(O)cc1)C(=O)N[C@@H](CC(C)C)C(=O)N[C@H](C(=O)N[C@@H](CCCCNC(=O)COCCOCCNC(=O)CC[C@H](NC(=O)CCCCCCCCCOc1ccc(C(=O)O)cc1)C(=O)O)C(=O)NCC(=O)NCC(=O)N1CCC[C@H]1C(=O)N[C@@H](CO)C(=O)N[C@@H](CO)C(=O)NCC(=O)N[C@@H](C)C(=O)N1CCC[C@H]1C(=O)N1CCC[C@H]1C(=O)N1CCC[C@H]1C(=O)N[C@@H](CO)C(N)=O)[C@@H](C)CC)[C@@H](C)CC [Example 382],Emax,hGIPR; [1],87.2%
same,Emax,"hGIPR; HEK293, read-out: hGIPR Emax, % ± SEM, cAMP, 37° C., 0.1% bovine casein, percent of maximal response to GIP(1-42)NH2, arithmetic mean",97.6%
same,EC50,hGIPR; [2],0.0302 nM
same,EC50,hGCGR; [3],> 9950 nM
same,EC50,hGCGR; [4],> 9950 nM
same,Emax,"hGLP-1R; HEK293, read-out: hGLP-1R Emax, % ± SEM, cAMP, 37° C., 0.1% bovine casein and 1.0% human serum albumin, percent of maximal response to GLP-1(7-36)NH2",118%
same,EC50,hGLP-1R; [5],0.619 nM
CCCCCCCCCCCC(=O)N[C@@H](CCC(=O)NCCOCCOCC(=O)NCCOCCOCC(=O)NCCOCCOCC(=O)NCCCC[C@H](NC(=O)[C@H](CCCN)NC(=O)[C@H](CC(=O)O)NC(=O)[C@H](CC(C)C)NC(=O)[C@](C)(CC(C)C)NC(=O)[C@@H](NC(=O)C(C)(C)NC(=O)[C@H](Cc1ccncc1)NC(=O)[C@H](CC(=O)O)NC(=O)[C@H](CO)NC(=O)[C@@H](NC(=O)[C@](C)(Cc1ccccc1F)NC(=O)[C@@H](NC(=O)CNC(=O)[C@H](CCC(=O)O)NC(=O)C(C)(C)NC(=O)[C@@H](N)Cc1ccc(O)cc1)[C@@H](C)O)[C@@H](C)O)[C@@H](C)CC)C(=O)N[C@@H](C)C(=O)N[C@@H](CCC(N)=O)C(=O)NC(C)(C)C(=O)N[C@@H](CCCCNC(=O)COCCOCCNC(=O)COCCOCCNC(=O)COCCOCCNC(=O)CC[C@H](NC(=O)CCCCCCCCCCC)C(=O)O)C(=O)N[C@@](C)(Cc1ccccc1)C(=O)N[C@H](C(=O)N[C@H](CCC(=O)O)C(=O)N[C@@](C)(Cc1ccc(O)cc1)C(=O)N[C@@H](CC(C)C)C(=O)N[C@H](C(=O)N[C@@H](CCC(=O)O)C(=O)NCC(=O)NCC(=O)N1CCC[C@H]1C(=O)N[C@@H](CO)C(=O)N[C@@H](CO)C(=O)NCC(=O)N[C@@H](C)C(=O)N1CCC[C@H]1C(=O)N1CCC[C@H]1C(=O)N1CCC[C@H]1C(=O)N[C@@H](CO)C(N)=O)[C@@H](C)CC)[C@@H](C)CC)C(=O)O [Example 437] (H-Y[Aib]EGT[αMePhe(2-F)]TSD[4Pal][Aib]I[αMeL]LD[Orn]K([AEEA-AEEA-AEEA-γGlu-Lauroyl])AQ[Aib]K([AEEA-AEEA-AEEA-γGlu-Lauroyl])[αMeF]I[dE][αMeY]LIEGGPSSGAPPPS-NH2),Emax,"hGIPR; HEK293, cAMP, 37° C., 0.1% bovine casein and 1.0% human serum albumin, percent of maximal response to GIP(1-42)NH2, read-out: hGIPR Emax, % ± SEM",96.5%
same,Emax,"hGIPR; HEK293, cAMP, 37° C., 0.1% bovine casein, percent of maximal response to GIP(1-42)NH2, arithmetic mean, read-out: hGIPR Emax, % ± SEM",94.8%
same,EC50,"hGIPR; 37° C., read-out: hGIPR EC50, nM (SEM, n)",0.0146 nM
same,EC50,"hGCGR; 37° C., 0.1% bovine casein (no human serum albumin), geometric mean, read-out: hGCGR EC50, nM (SEM, n)",> 9950 nM
same,EC50,"hGCGR; 37° C., 0.1% bovine casein and 1.0% human serum albumin, geometric mean (SEM, n), read-out: hGCGR EC50, nM (SEM, n)",> 9950 nM
same,Emax,"hGLP-1R; HEK293, cAMP, 37° C., 0.1% bovine casein and 1.0% human serum albumin, percent of maximal response to GLP-1(7-36)NH2, read-out: hGLP-1R Emax, % ± SEM",91.2%
same,Emax,"hGLP-1R; HEK293, cAMP, 37° C., 0.1% bovine casein, percent of maximal response to GLP-1(7-36)NH2, arithmetic mean, read-out: hGLP-1R Emax, % ± SEM",89.2%
same,EC50,"hGLP-1R; 37° C., read-out: hGLP-1R EC50, nM (SEM, n)",0.249 nM
